Columns and labels:
ALPP [1] = test: ALPP expression in cancer cell lines after drug treatment (immunoblot, immunofluorescence, flow cytometry, qPCR, surface proteomics); assay type: cell-based, human; conditions: for ALPP expression after PI3K/AKT or MEK/ERK inhibition: HCC827 and H1650 (FIG. 8D: HCC827 and PC9); for ALPP expression after drug washout and re-treatment: 48 hours treatment, 48 hours without inhibitor; for ALPP and percentage of ALPP+ cells over time: one to four days, 30 nM; for ALPP induction by other EGFR inhibitors (immunoblots): EGFR-mutant H1650 and HCC827; for fold increase in ALPP expression: EGFR TKI treatment (FIG. 7D, FIG. 15B: 30 nM, 48 hours)
Text: ALPP and ALPPL2 expression analysis in whole cell extracts and in the surfaceome compartment was done by mass spectrometry as previously described^19-23. Each dataset was normalized to the total number of spectral counts for each compartment^24.
Images were acquired in z-series on a spinning-disk confocal system.
Probe for ALPP was purchased from Thermo Fisher Scientific (Hs03046558_s1).

ALPP [2] = conditions: PC9 xenograft tumors; GSE161584; cited from earlier work
FoxO3a = FoxO3a phosphorylation, localisation and transcription in LUAD cells
ALPP promoter = test: ChIP-qPCR for FoxO3a binding to the promoter region of ALPP gene; assay type: cell-based, human; conditions: H1650 and HCC827; 1 μM, 6 hours
Text: Subsequently, the DNA-protein complexes were enriched with Protein A/G magnetic Beads and DNA was recovered by the DNA Clean-up column.

[3] = tested on: AKT (Ser473) and ERK (T202/Y204) phosphorylation; test: Immunoblots for AKT and ERK phosphorylation in LUAD cells; assay type: cell-based, human; conditions: H2291 and H1650; EGF 10 or 20 ng/mL, gefitinib 0.5 or 1 μM
ALPP [4] = test: IHC for ALPP in tumor and normal tissues of gefitinib-treated H1650 tumor-bearing mice; assay type: in vivo, BALB/c nude mice; conditions: 50 mg/kg daily for 10 days
Method: IHC staining was performed as previously described 25.

ALPP [5] = conditions: cited from earlier work
HCC827 and PC9 cells [6] = test: Flow cytometry-based cell cycle analysis; set-up: species or system human; conditions: 30 nM
HCC827 and PC9 cells [7] = conditions: 100 nM
[8] = EGFR mut H1650, 24- and 48-hour treatment

With `CCn1cc(C(=O)O)c(=O)c2c(N)c(F)c(NC3CCCCC3)cc21` [AS1842856] the “ALPP protein expression after FoxO inhibition” value (ALPP [1]; LUAD cells (HCC827 and PC9), 48 hours) was “diminished ALPP protein expression” and the “effect on gefitinib-mediated ALPP upregulation” value (ALPP [1]; LUAD cells (HCC827 and PC9), with gefitinib, 48 hours) was “blunted gefitinib-mediated ALPP upregulation”.
In the case of `Cc1cc(C(=O)NOCCO)c(Nc2ccc(I)cc2F)n(C)c1=O` [AZD8330], the “ALPP expression after PI3K/AKT or MEK/ERK inhibition” value (ALPP [1]; 100 nM, 48 hours) was “drastic induction of ALPP expression”.
With `Nc1cc(C(F)(F)F)c(-c2cc(N3CCOCC3)nc(N3CCOCC3)n2)cn1` [NVP-BKM120] the “ALPP expression after PI3K/AKT or MEK/ERK inhibition” value (ALPP [1]; 100 nM, 48 hours) was “drastic induction of ALPP expression”.
For `O=C(Nc1ccc2[nH]nc(-c3ccncc3)c2c1)[C@@H]1CCN(CC(=O)N2CCN(c3ccc(-c4ncccn4)cc3)CC2)C1` [SCH772984], the “ALPP expression after PI3K/AKT or MEK/ERK inhibition” value (ALPP [1]; 100 nM, 48 hours) was “drastic induction of ALPP expression”.
For `C#Cc1cccc(Nc2ncnc3cc(OCCOC)c(OCCOC)cc23)c1` [erlotinib], the “ALPP mRNA expression in xenograft tumors” value (ALPP [2]) is listed as “increased ALPP mRNA expression in erlotinib-responding tumors compared with treatment naïve tumors”.
With `COc1cc2ncnc(Nc3ccc(F)c(Cl)c3)c2cc1OCCCN1CCOCC1` [gefitinib] the “ALPP expression (immunoblots)” value (ALPP [1]; [8]) was “ALPP upregulation”, the “surface ALPP expression (mass spectrometry, immunofluorescence)” value (ALPP [1]; EGFR mutant H1650 and PC9, 24- and 48-hour treatment) was “pronounced upregulation of surface ALPP expression” and the “ALPP expression (immunoblots)” value (ALPP [1]; EGFR wild-type, KRAS mutant H2291 and H1838) was “increased ALPP expression, although to a lesser extent”. For the same molecule, the “surface ALPP by flow cytometry in gefitinib-resistant cells” value (ALPP [1]; GR HCC827 and PC9, 100 nM) was “majority of gefitinib-resistant cells expressed high level of ALPP”, the “ALPP expression in gefitinib-resistant (GR) cells” value (ALPP [1]; GR HCC827 and PC9, 100 nM, 48 hours) was “further enhanced ALPP upregulation” and the “ALPP upregulation in ALPP non-expressing cell lines” value (ALPP [1]; H1395, H1944, HCC2279, 1 μM, 48 hours) was “did not upregulate ALPP”. For the same molecule, the “ALPP mRNA levels” value (ALPP [1]; H1650 and HCC827) was “concomitant increases in ALPP mRNA levels”, the “ALPP levels in ALPP-positive LUAD cell lines” value (ALPP [1]; H2291, H1650, H1838, H1651, 1 μM, 48 hours) was “exhibited elevated ALPP levels” and the “ALPP expression after drug washout and re-treatment” value (ALPP [1]; HCC827 and PC9) was “markedly reduced in the absence of EGFR inhibitors and was restored with the addition of inhibitors”. For the same molecule, the “ALPP and percentage of ALPP+ cells over time” value (ALPP [1]; HCC827 and PC9) was “gradual and sustained increase of ALPP and percentage of ALPP^+ cells”, the “ALPP expression (immunoblots)” value (ALPP [1]; TNBC cell lines BT20 and HCC1937, 1 μM) was “increased ALPP expression” and the FoxO3a cytosol/nucleus distribution (FoxO3a; H1650 and HCC827) was “reduced cytosolic FoxO3a and promoted its nuclear translocation”. The “phosphorylation of FoxO3a (Ser294, Ser425)” value (FoxO3a; H1650 and HCC827, 30 nM, 6 hours) was “repressed phosphorylation of FoxO3a at Ser294 and Ser425 residues”, the “transcription of FOXO3A” value (FoxO3a; LUAD cells) was “not affected” and the “FoxO3a binding to ALPP promoter (ChIP-qPCR)” value (ALPP promoter) was “induced FoxO3a binding to ALPP promoter sequences”. For the same molecule, the “AKT and ERK phosphorylation” value [3] was “repressed phosphorylation of AKT and ERK”, the “tumoral ALPP surface expression (IHC)” value (ALPP [4]) was “pronounced increases in tumoral ALPP surface expression” and the “ALPP protein staining in other tissues (IHC)” value (ALPP [4]; normal tissues) was “negative or showed no appreciable difference compared to the vehicle control”.
With `CS(=O)(=O)CCNCc1ccc(-c2ccc3ncnc(Nc4ccc(OCc5cccc(F)c5)c(Cl)c4)c3c2)o1` [lapatinib] the “ALPP induction by other EGFR inhibitors (immunoblots)” value (ALPP [1]) was “yielded similar results”.
In the case of `C=CC(=O)Nc1cc(Nc2nccc(-c3cn(C)c4ccccc34)n2)c(OC)cc1N(C)CCN(C)C` [osimertinib], the “ALPP induction by other EGFR inhibitors (immunoblots)” value (ALPP [1]) was “yielded similar results”, the “ALPP expression (immunoblots)” value (ALPP [1]; HCC827 and PC9, 30 nM (FIG. 8K)) was “increased ALPP expression” and the “ALPP expression after drug washout and re-treatment” value (ALPP [1]; HCC827 and PC9) was “markedly reduced in the absence of EGFR inhibitors and was restored with the addition of inhibitors”. The “ALPP and percentage of ALPP+ cells over time” value (ALPP [1]; HCC827 and PC9) was “gradual and sustained increase of ALPP and percentage of ALPP^+ cells”, the “fold increase in ALPP expression” value (ALPP [1]; HCC827 cells) was ~60 fold and the “fold increase in ALPP expression” value (ALPP [1]; PC9 cells) was ~110 fold. For the same molecule, the “phosphorylation of EGFR and FoxO3a” value (FoxO3a; HCC827 and PC9, 30 nM) was “suppressed the phosphorylation of EGFR and FoxO3a”, the “Ingenuity Pathway Analysis of upstream regulators” value (ALPP [5]; 4 LUAD cell lines, RNAseq data GSE193258) was “concordant activation of FoxO3a, but not FoxO1” and the “ALPP gene expression, single cell transcriptomics” value (ALPP [5]; PC9, 0, 3, 7, 14 days, GSE150949) was “progressive increase in ALPP gene expression”. The “LUAD cells expressing ALPP” value (ALPP [5]; PC9, day 14, GSE150949) was ~50%, the “cell cycle arrest in G0/G1” value (HCC827 and PC9 cells [6]) was “statistically significantly increased cell cycle arrest in G0/G1” and the “emergence of drug-resistant clones under continuous TKI treatment” value (HCC827 and PC9 cells [7]) was “led to the emergence of drug-resistant clones”.
In the case of “EGF: epidermal growth factor, the endogenous ligand of EGFR”, the “ALPP expression (immunoblots)” value (ALPP [1]; [8]) was “reduced ALPP expression”, the “ALPP expression in EGF-containing growth medium” value (ALPP [1]; H1650 and H2291, EGF 10 or 20 ng/mL, 24 and 48 hours) was “drastically reduced” and the “AKT and ERK phosphorylation” value [3] was “induced AKT phosphorylation at serine 473 (Ser473), and ERK phosphorylation at threonine 202 (T202) and tyrosine 204 (Y204) residues”.
